Fraction unbound, IC50 and solubility data for 15 compounds are collected here from patent US20240174690A1, “ANNULATED 2-AMINO-3-CYANO THIOPHENES AND DERIVATIVES FOR THE TREATMENT OF CANCER” (BOEHRINGER INGELHEIM INTERNATIONAL GMBH, priority 2021, published 2024).

≈ marks a conversion by molar mass, not a printed value. Read-outs that look alike come from different tables or passages of the source. Some results are limits rather than exact numbers.

A word on the IC50: it is the concentration that gives 50% inhibition. A lower IC50 goes with greater potency in that assay. Broadly, the solubility is the dissolved amount per volume that the medium holds.

Series [1] is described as follows: Plasma protein binding assay (PPB), equilibrium dialysis, 10% FCS in PBS. In kind it is in vitro ADME. Conditions: bovine, read-out: PPB 10% FCS (% fu). A digest of the protocol:
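Equilibrium dialysis (5-10 kg/mol cut-off membrane) of 1-10 μmol/L test compound in 10% FCS/PBS against PBS with or without dextran, 3-5 h at 37° C. Compound in each chamber quantified by LC-MS after protein precipitation; fu calculated from Cserum and Cbuffer.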

Series [2] concerns KRAS G12V-dependent Ba/F3 cells. As to the kind of experiment: Ba/F3 proliferation assay, KRAS G12V.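 Further: proliferation IC50 in KRAS G12V-dependent Ba/F3 cells read by AlamarBlue.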 The format is cell-based. Conditions: Mus musculus, BaF3, 72 h, AlamarBlue. A digest of the protocol:
(§1)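 Viability is measured as AlamarBlue fluorescence in Ba/F3 cells that depend on a transduced mutant KRAS isoform for growth without IL-3. Each treatment is run in technical duplicate, and dose-response curves are fitted.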

A further series deals with AsPC-1 cells. As to the kind of experiment: AsPC-1 CTG proliferation assay (120 h) (pancreatic cancer, G12D). Conditions: Homo sapiens, ASPC1. In kind it is cell-based. The method, boiled down:
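AsPC-1 cells (KRAS G12D), 2000/well in RPMI with 10% FCS, seeded overnight, then treated with compound for 120 h at 37 °C. Viability by CellTiter-Glo luminescence as percent of DMSO control. IC50 from a four-parameter non-linear fit.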

Another series has as its system LOVO cells. Nature of the series: LOVO CTG proliferation assay (120 h) (CRC, G13D). The format is cell-based. Particulars: Homo sapiens, CTG 120 h. A digest of the protocol:
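LOVO cells, 1000 per well in DMEM + 10% FCS, were plated overnight and then dosed with compound from DMSO stock. After 120 h at 37 °C, viability was read by CellTiter-Glo luminescence as a percentage of DMSO controls. IC50 was derived by four-parameter non-linear regression.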

A further series concerns SAS cells. Nature of the series: SAS CTG proliferation assay (120 h) (HNSCC, wt amplified). In kind it is cell-based. A digest of the protocol: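 SAS cells plated at 300 per well in DMEM:F12 with 10% FCS and left overnight, then given compounds acoustically. After 120 h exposure, viability read by CellTiter-Glo as percent of DMSO control. IC50 from four-parameter non-linear regression.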

Series [3] can be described thus: Solubility measurement (DMSO solution method), McIlvaine buffer pH 4.5 or 6.8. In kind it is physicochemical. Particulars: aqueous buffer, kinetic from dmso stock, DMSO stock diluted to 250 μM, 24 h shaking at ambient temperature. The method, boiled down:
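DMSO stock diluted into McIlvaine buffer, pH 4.5 or 6.8, to 250 µM final, shaken 24 h at ambient temperature. Precipitate removed by filtration; filtrate quantified by LC-UV against a fully dissolved reference in acetonitrile/water 1:1.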

Series [4] concerns KRAS G12C-dependent Ba/F3 cells. As to the kind of experiment: Ba/F3 proliferation assay, KRAS G12C. In kind it is cell-based. Particulars: Mus musculus, BaF3, 72 h, AlamarBlue. A digest of the protocol:
as §1
For orientation: The colour change of resazurin is a common sign of viable cells or microbes.

The mark [5] stands for this setting: McIlvaine buffer pH 4.5, read-out: solubility pH 4.5.
[6] abbreviates: McIlvaine buffer pH 6.8, read-out: solubility pH 6.8.

Consider `CO[C@H]1CCN(C)[C@@H]1[C@H](C)Oc1cc(-n2ccc(C(=O)N[C@H]3CCOC3)n2)nc(-c2onc3c2CCC[C@@]32CCCc3sc(N)c(C#N)c32)n1` [I-54], for which the fraction unbound in series [1] was found to be 0.09. The IC50 in series [2] was determined as 1 nM; with AsPC-1 cells, 266 nM; in the series on LOVO cells it was 32 nM; in the series with SAS cells, 17 nM; in series [4] it was 1 nM. For the same compound, the solubility at 24 h in series [3] (setting [5]) was 16 µg/mL (≈ 22.9 µM); in series [3] (setting [6]) it was below 1 µg/mL.

For `COCCNC(=O)c1ccn(-c2cc(O[C@@H](C)[C@@H]3[C@@H](OC)CCN3C)nc(-c3onc4c3CCC[C@@]43CCCc4sc(N)c(C#N)c43)n2)n1` [I-55], the fraction unbound in series [1] turned out to be 0.06. The IC50 stood at 1 nM in series [2]; 565 nM with AsPC-1 cells; 39 nM in the series on LOVO cells; 10 nM with SAS cells; 2 nM in series [4]. In addition, the figures for the solubility at 24 h in series [3] (setting [5]) and in series [3] (setting [6]) were above 162 µg/mL and 5 µg/mL (≈ 7.27 µM), respectively.

`C[C@H](Oc1cc(-n2ccc(C(=O)N[C@@H]3CCOC3)n2)nc(-c2onc3c2CCC[C@@]32CCCc3sc(N)c(C#N)c32)n1)[C@@H]1CCCN1C` [I-56]: in series [1], the fraction unbound amounted to 0.32. For the same compound, the IC50 in series [2] worked out at 4 nM; in the series on AsPC-1 cells, 695 nM; in the series on LOVO cells, 23 nM; in the series with SAS cells, 25 nM; in series [4] it was 3 nM. Further, the solubility at 24 h in series [3] (setting [5]) amounted to 108 µg/mL (≈ 161 µM); in series [3] (setting [6]), 97 µg/mL (≈ 145 µM).

As to `COCCNC(=O)c1ccn(-c2cc(O[C@@H](C)[C@@H]3CCCN3C)nc(-c3onc4c3CCC[C@@]43CCCc4sc(N)c(C#N)c43)n2)n1` [I-58], in series [1], the fraction unbound worked out at 0.28. The IC50 in series [2] was 6 nM; with AsPC-1 cells, 696 nM; in the series on LOVO cells, 29 nM; in the series with SAS cells, 45 nM; in series [4], 4 nM. Besides, the solubility at 24 h in series [3] (setting [5]) was above 128 µg/mL; in series [3] (setting [6]), 94 µg/mL (≈ 143 µM).

For the compound `C[C@H](NC(=O)c1ccn(-c2cc(O[C@@H](C)[C@@H]3CCCN3C)nc(-c3onc4c3CCC[C@@]43CCCc4sc(N)c(C#N)c43)n2)n1)c1ccccn1` [I-59], in series [1], the fraction unbound was 0.04. Moreover, the IC50 in series [2] stood at 1 nM; with AsPC-1 cells, 444 nM; in the series on LOVO cells it was 22 nM; in the series with SAS cells, 15 nM; in series [4] it was 2 nM. In addition, the results for the solubility at 24 h in series [3] (setting [5]) and in series [3] (setting [6]) were above 150 µg/mL and 15 µg/mL (≈ 21.3 µM), respectively.

On to `C[C@H](Oc1cc(-n2ccc(C(=O)N(C)C3COC3)n2)nc(-c2onc3c2CCC[C@@]32CCCc3sc(N)c(C#N)c32)n1)[C@@H]1CCCN1C` [I-60], for which, in series [1], the fraction unbound came out at 0.1. Further, the IC50 in series [2] came out at 4 nM; with AsPC-1 cells, 779 nM; in the series with LOVO cells, 49 nM; with SAS cells, 40 nM; in series [4] it was 5 nM. Further, the solubility at 24 h in series [3] (setting [5]) is above 158 µg/mL; in series [3] (setting [6]) it was above 161 µg/mL.

For the compound `C[C@H](Oc1cc(N2CC(N(C)C)C2)nc(-c2noc3c2CCC[C@@]32CCCc3sc(N)c(C#N)c32)n1)[C@@H]1CCCN1C` [II-7], the fraction unbound in series [1] was found to be 0.43. Moreover, the IC50 in series [2] came out at 196 nM; with AsPC-1 cells it was 1640 nM; in the series with LOVO cells, 835 nM; in the series on SAS cells, 1190 nM; in series [4], 277 nM. In addition, the solubility at 24 h in series [3] (setting [5]) was above 141 µg/mL; in series [3] (setting [6]) it was above 134 µg/mL.

With `C[C@H](Oc1cc(N2CCN(CCO)CC2)nc(-c2noc3c2CCC[C@@]32CCCc3sc(N)c(C#N)c32)n1)[C@@H]1CCCN1C` [II-8], the fraction unbound in series [1] was determined as 0.17. Besides, the IC50 in series [2] was found to be 316 nM; in the series on AsPC-1 cells, 2730 nM; with LOVO cells, 680 nM; in the series with SAS cells, 534 nM; in series [4], 301 nM. In addition, the solubility at 24 h in series [3] (setting [5]) is above 141 µg/mL; in series [3] (setting [6]) it was above 132 µg/mL.

With `C[C@H](Oc1cc(N2C[C@@H](N(C)C)[C@@H](O)C2)nc(-c2noc3c2CCC[C@@]32CCCc3sc(N)c(C#N)c32)n1)[C@@H]1CCCN1C` [II-10], in series [1], the fraction unbound was 0.69. For the same compound, the IC50 was 957 nM in series [2]; 811 nM with AsPC-1 cells; 972 nM in the series with LOVO cells; 3540 nM in the series on SAS cells; 844 nM in series [4]. The solubility at 24 h in series [3] (setting [5]) is above 143 µg/mL; in series [3] (setting [6]) it was above 135 µg/mL.

On to `C[C@H](Oc1cc(N2C[C@@H](N(C)C)[C@@H](F)C2)nc(-c2noc3c2CCC[C@@]32CCCc3sc(N)c(C#N)c32)n1)[C@@H]1CCCN1C` [II-11], for which the fraction unbound in series [1] stood at 0.89. The IC50 came out at 324 nM in series [2]; 1430 nM in the series on AsPC-1 cells; 383 nM in the series with LOVO cells; 1320 nM with SAS cells; 241 nM in series [4]. The solubility at 24 h in series [3] (setting [5]) was above 150 µg/mL; in series [3] (setting [6]), above 141 µg/mL.

In the case of `C[C@H](Oc1cc(N2CC[C@H](N3CCCCC3)C2)nc(-c2noc3c2CCC[C@@]32CCCc3sc(N)c(C#N)c32)n1)[C@@H]1CCCN1C` [II-12], the fraction unbound in series [1] is 0.2. Also, the IC50 in series [2] came out at 549 nM; with AsPC-1 cells, 544 nM; with LOVO cells, 401 nM; with SAS cells it was 1920 nM; in series [4] it was 438 nM. Moreover, the solubility at 24 h in series [3] (setting [5]) was above 143 µg/mL; in series [3] (setting [6]) it was above 137 µg/mL.

Consider `C[C@H](Oc1cc(N2CCN(C)C3(COC3)C2)nc(-c2noc3c2CCC[C@@]32CCCc3sc(N)c(C#N)c32)n1)[C@@H]1CCCN1C` [II-13], for which, in series [1], the fraction unbound turned out to be 0.24. Moreover, the IC50 came to 247 nM in series [2]; 251 nM with AsPC-1 cells; 61 nM with LOVO cells; 450 nM with SAS cells; 120 nM in series [4]. Also, the solubility at 24 h in series [3] (setting [5]) is above 139 µg/mL; in series [3] (setting [6]) it was above 147 µg/mL.

As for `C[C@H](Oc1cc(N2CC[C@H](N3CCCC3)C2)nc(-c2noc3c2CCC[C@@]32CCCc3sc(N)c(C#N)c32)n1)[C@@H]1CCCN1C` [II-14], the fraction unbound in series [1] came out at 0.16. The IC50 in series [2] was 771 nM; with AsPC-1 cells, 245 nM; in the series on LOVO cells it was 674 nM; in the series with SAS cells, 1670 nM; in series [4], 293 nM. The solubility at 24 h is above 151 µg/mL in series [3] (setting [5]) and 123 µg/mL (≈ 196 µM) in series [3] (setting [6]).

Turning to `C[C@H](Oc1cc(N2CC[C@H](N(C)C)C2)nc(-c2noc3c2CCC[C@@]32CCCc3sc(N)c(C#N)c32)n1)[C@@H]1C[C@@H](F)CN1C` [II-15], the fraction unbound in series [1] was found to be 0.64. The IC50 was found to be 340 nM in series [2]; 220 nM in the series on AsPC-1 cells; 867 nM with LOVO cells; 1300 nM with SAS cells; 323 nM in series [4]. Besides, the solubility at 24 h in series [3] (setting [5]) was above 144 µg/mL; in series [3] (setting [6]) it was above 130 µg/mL.

As to `C[C@H]1CN(C)CCCN1c1cc(N2CC[C@H](N(C)C)C2)nc(-c2noc3c2CCC[C@@]32CCCc3sc(N)c(C#N)c32)n1` [II-16], in series [1], the fraction unbound was determined as 0.16. For the same compound, the half-inhibitory concentration (IC50) in series [2] came out at 1640 nM; in the series on AsPC-1 cells it was 1920 nM; with LOVO cells it was 1340 nM; in the series on SAS cells, 3870 nM; in series [4], 1570 nM. For the same compound, the solubility at 24 h in series [3] (setting [5]) was above 147 µg/mL; in series [3] (setting [6]), above 132 µg/mL.
